Assay results published in US10130630B2, “BTK inhibitors” (MERCK SHARP & DOHME CORP., priority 2014, dated 2018).
Read-outs that look alike come from different tables or passages of the source.

Columns and labels:
[1] = system: adenosine uptake into HeLa cells; experiment: [3H]Adenosine uptake assay in HeLa cells; type: cell-based; conditions: 60 minutes uptake, read-out: ADU inhibition IC50 (adenosine uptake inhibition potency)
Method: Compounds were also screened in an adenosine uptake functional cellular assay using the protocol described below.
Adenosine uptake activity was determined by monitoring the accumulation of tritiated adenosine into HeLa cells (ATCC catalog # CCL-2) using a PMT-based radiometric detection instrument. In this assay, the potency (IC50) of each compound was determined from a ten point (1:3 serial dilution; final compound concentration range in assay from 10 μM to 0.032 nM) titration curve using the following outlined procedure. To each well of a 96-well CytoStar-T scintillating microplate (Perkin Elmer Catalog # RPNQ0163), 25 000 HeLa cells in 100 μL of growth medium comprising: Minimum Essential Media (Life Technologies Catalog # 11095-080)+10% (v/v) foetal bovine serum (FBS; Sigma Aldrich Catalog # F2442) was added. These cells were incubated overnight at 37° C. in a humidified atmosphere with 5% (v/v) CO2. After this time the growth medium was removed and replaced with 40 μL assay medium comprising: Hanks balanced salts solution (HBSS; Thermo Fisher Catalog # SH30268.01)+5% (v/v) FBS. Compound stock solutions in DMSO were diluted in assay medium to 2.5× final compound concentration maintaining a constant DMSO concentration of 0.25% (v/v). 40 μL of compound in assay medium was dispensed into individual wells of the Cytostar-T plates and the plates were incubated for 30 minutes under ambient laboratory conditions. Following this incubation, 20 μL of 500 nM [^3H]adenosine (American Radiolabeled Chemicals Inc. Catalog # ART0287) in assay medium was added and incubated for a further 60 minutes under ambient laboratory conditions. The amount of radiolabel accumulation was then determined using a Perkin Elmer Topcount NXT microplate reader. In brief, HeLa cells adhere to the bottom of the Cytostar-T plate, uptake of [^3H]adenosine into these cells brings the radiolabel into sufficient proximity to excite the scintillant in the base of the plates. These events are captured by single PMT, time-resolved coincidence counting. IC50 values were determined by 4 parameter robust fit of counts per second values vs. (Log10) compound concentrations.

[2] = molecular target: T1, BTK enzyme (full-length BTK, hBTK) (Homo sapiens, UniProt Q06187); experiment: Btk enzyme activity assay (LANCE TR-FRET); type: biochemical; conditions: 50 pM hBTK, 25 μM ATP, 60 minute compound and enzyme incubation, read-out: BTK binding IC50
T1 construct: recombinant protein from baculovirus-transfected Sf9 cells: full-length BTK, 6HIS-tag cleaved; 6HIS (cleaved yes); made in house; host or cells: baculovirus-transfected Sf9 cells
T1 sequence (Q06187 whole entry): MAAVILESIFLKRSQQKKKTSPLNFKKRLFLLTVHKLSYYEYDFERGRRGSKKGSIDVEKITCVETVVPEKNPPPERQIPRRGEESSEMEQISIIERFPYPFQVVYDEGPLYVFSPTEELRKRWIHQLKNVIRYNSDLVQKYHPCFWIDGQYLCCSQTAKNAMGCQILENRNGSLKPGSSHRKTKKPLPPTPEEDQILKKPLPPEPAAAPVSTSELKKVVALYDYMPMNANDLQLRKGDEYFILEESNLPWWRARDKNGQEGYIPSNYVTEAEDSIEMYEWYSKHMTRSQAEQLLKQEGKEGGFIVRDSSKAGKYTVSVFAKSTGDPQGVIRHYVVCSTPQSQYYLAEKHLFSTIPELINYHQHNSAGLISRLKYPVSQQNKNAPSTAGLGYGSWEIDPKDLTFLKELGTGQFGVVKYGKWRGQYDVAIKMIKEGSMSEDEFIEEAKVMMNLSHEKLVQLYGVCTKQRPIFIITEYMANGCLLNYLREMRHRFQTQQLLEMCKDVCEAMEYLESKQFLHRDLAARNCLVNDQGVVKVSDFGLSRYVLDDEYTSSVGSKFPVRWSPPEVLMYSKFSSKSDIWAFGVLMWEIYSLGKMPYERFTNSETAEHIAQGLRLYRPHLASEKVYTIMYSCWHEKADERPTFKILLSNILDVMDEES
Method: BTK enzymatic activity was determined with the LANCE (Lanthanide Chelate Excite) TR-FRET (Time-resolved fluorescence resonance energy transfer) assay. […] To each well of a black non-binding surface Corning 384-well microplate (Corning Catalog #3820), 5 nL of compound (2000 fold dilution in final assay volume of 10 μL) was dispensed, followed by the addition of 7.5 μL of 1× kinase buffer (50 mM Hepes 7.5, 10 mM MgCl2, 0.01% Brij-35, 1 mM EGTA, 0.05% BSA & 1 mM DTT) containing 5.09 pg/μL (66.67 pM) of BTK enzyme (recombinant protein from baculovirus-transfected Sf9 cells: full-length BTK, 6HIS-tag cleaved). Following a 60 minute compound and enzyme incubation, each reaction was initiated by the addition of 2.5 μL 1× kinase buffer containing 8 μM biotinylated “A5” peptide (Biotin-[…]-NH2) (SEQ.ID.NO.: 1), and 100 μM ATP. The final reaction in each well of 10 μL consists of 50 pM hBTK, 2 μM biotin-A5-peptide, and 25 μM ATP. Phosphorylation reactions were allowed to proceed for 120 minutes. Reactions were immediately quenched by the addition of 20 uL of 1× quench buffer (15 mM EDTA, 25 mM Hepes 7.3, and 0.1% Triton X-100) containing detection reagents (0.626 nM of LANCE-Eu-W1024-anti-phosphoTyrosine antibody, PerkinElmer and 86.8 nM of Streptavidin-conjugated Dylight 650, Dyomics/ThermoFisher Scientific). After 60 minutes incubation with detection reagents, reaction plates were read on a PerkinElmer EnVision plate reader using standard TR-FRET protocol. Briefly, excitation of donor molecules (Eu-chelate:anti-phospho-antibody) with a laser light source at 337 nm produces energy that can be transferred to Dylight-650 acceptor molecules if this donor:acceptor pair is within close proximity. Fluorescence intensity at both 665 nm (acceptor) and 615 nm (donor) are measured and a TR-FRET ratio calculated for each well (acceptor intensity/donor intensity). IC50 values were determined by 4 parameter robust fit of TR-FRET ratio values vs. (Log10) compound concentrations.
The following Table 2 provides specific IC50 values for all the examples. The IC50 values set forth below were determined according to Assay method described above.

Row | IC50 ([1]; Homo sapiens, HeLa) [nM] | IC50 [2] [nM] | IC50 [1] [nM] | SMILES
1 | 1110 | 0.127 | – | CCOc1cc(C(=O)Nc2cc(C(F)(F)F)ccn2)ccc1-c1nc([C@@H]2CC[C@@H]3N(C2)C(=O)CC32CC2)n2ccnc(N)c12 [Compound 18, 4-{8-amino-3-[(6′R,8a′S)-3′-oxohexahydro-5′H-spiro[cyclopropane-1,1′-indolizin]-6′-yl]imidazo[1,5-a]pyrazin-1-yl}-3-ethoxy-N-[4-(trifluoromethyl)pyridin-2-yl]benzamide]
2 | 613 | 3.81 | – | CCOc1cc(C(=O)Nc2cc(C(F)(F)F)ccn2)ccc1-c1nc([C@H]2CC[C@H]3N(C2)C(=O)CC32CC2)n2ccnc(N)c12 [Compound 19, 4-{8-amino-3-[(6′S,8a′R)-3′-oxohexahydro-5′H-spiro[cyclopropane-1,1′-indolizin]-6′-yl]imidazo[1,5-a]pyrazin-1-yl}-3-ethoxy-N-[4-(trifluoromethyl)pyridin-2-yl]benzamide]
3 | 871 | 0.171 | – | CCOc1cc(C(=O)Nc2cc(C(F)(F)F)ccn2)cc(F)c1-c1nc([C@@H]2CC[C@@H]3N(C2)C(=O)CC32CC2)n2ccnc(N)c12 [Compound 20, 4-{8-amino-3-[(6′R,8a′S)-3′-oxohexahydro-5′H-spiro[cyclopropane-1,1′-indolizin]-6′-yl]imidazo[1,5-a]pyrazin-1-yl}-3-ethoxy-5-fluoro-N-[4-(trifluoromethyl)pyridin-2-yl]benzamide]
4 | 1060 | 0.16 | – | CCOc1cc(C(=O)Nc2cc(C3CC3)ccn2)cc(F)c1-c1nc([C@@H]2CC[C@@H]3N(C2)C(=O)CC32CC2)n2ccnc(N)c12 [Compound 21, 4-{8-amino-3-[(6′R,8a′S)-3′-oxohexahydro-5′H-spiro[cyclopropane-1,1′-indolizin]-6′-yl]imidazo[1,5-a]pyrazin-1-yl}-N-(4-cyclopropylpyridin-2-yl)-3-ethoxy-5-fluorobenzamide]
5 | 1430 | 0.269 | – | CCOc1cc(C(=O)Nc2cc(C(F)(F)F)n(C)n2)cc(F)c1-c1nc(C2CCC3N(C2)C(=O)CC32CC2)n2c(F)cnc(N)c12 (stereo not shown) [Compound 22, 4-[8-amino-5-fluoro-3-(3′-oxohexahydro-5′H-spiro[cyclopropane-1,1′-indolizin]-6′-yl)imidazo[1,5-a]pyrazin-1-yl]-3-ethoxy-5-fluoro-N-[1-methyl-5-(trifluoromethyl)-1H-pyrazol-3-yl]benzamide]
6 | – | 5.9 | 2090 | CCOc1cc(C(=O)Nc2cc(C(F)(F)F)n(C)n2)cc(F)c1-c1nc(C2CCC3N(C2)C(=O)CC32CC2)n2c(F)cnc(N)c12 (stereo not shown) [Compound 23, 4-[8-amino-5-fluoro-3-(3′-oxohexahydro-5′H-spiro[cyclopropane-1,1′-indolizin]-6′-yl)imidazo[1,5-a]pyrazin-1-yl]-3-ethoxy-5-fluoro-N-[1-methyl-5-(trifluoromethyl)-1H-pyrazol-3-yl]benzamide]
7 | 1140 | 1.6 | – | CCOc1cc(C(=O)Nc2cc(C(F)(F)F)ccn2)ccc1-c1nc([C@@H]2CC[C@@H]3N(C2)C(=O)C2(CC2)C3(F)F)n2ccnc(N)c12 [Compound 27, 4-{8-amino-3-[(6′R,8a′S)-1′,1′-difluoro-3′-oxohexahydrospiro[cyclopropane-1,2′-indolizin]-6′-yl]imidazo[1,5-a]pyrazin-1-yl}-3-ethoxy-N-[4-(trifluoromethyl)pyridin-2-yl]benzamide]
8 | 1950 | 1.54 | – | CCOc1cc(C(=O)Nc2cc(C(F)(F)F)ccn2)cc(F)c1-c1nc([C@@H]2CC[C@@H]3N(C2)C(=O)C2(CC2)C3(F)F)n2ccnc(N)c12 [Compound 28, 4-{8-amino-3-[(6′R,8a′S)-1′,1′-difluoro-3′-oxohexahydrospiro[cyclopropane-1,2′-indolizin]-6′-yl]imidazo[1,5-a]pyrazin-1-yl}-3-ethoxy-5-fluoro-N-[4-(trifluoromethyl)pyridin-2-yl]benzamide]
9 | 672 | 1.51 | – | COc1cc(C(=O)Nc2cc(C(F)(F)F)ccn2)ccc1-c1nc([C@H]2CC[C@H]3N(C2)C(=O)C2(CC2)C3(F)F)n2ccnc(N)c12 [Compound 29, 4-{8-amino-3-[(6′S,8a′R)-1′,1′-difluoro-3′-oxohexahydrospiro[cyclopropane-1,2′-indolizin]-6′-yl]imidazo[1,5-a]pyrazin-1-yl}-3-methoxy-N-[4-(trifluoromethyl)pyridin-2-yl]benzamide]
10 | 1070 | 1.61 | – | COc1cc(C(=O)Nc2cc(C(F)(F)F)ccn2)cc(F)c1-c1nc([C@@H]2CC[C@@H]3N(C2)C(=O)C2(CC2)C3(F)F)n2ccnc(N)c12 [Compound 30, 4-{8-amino-3-[(6′R,8a′S)-1′,1′-difluoro-3′-oxohexahydrospiro[cyclopropane-1,2′-indolizin]-6′-yl]imidazo[1,5-a]pyrazin-1-yl}-3-fluoro-5-methoxy-N-[4-(trifluoromethyl)pyridin-2-yl]benzamide]
11 | 144 | 0.41 | – | Nc1nccn2c([C@H]3CC[C@H]4N(C3)C(=O)C3(CC3)C4(F)F)nc(-c3ccc(C(=O)Nc4cc(C(F)(F)F)ccn4)cc3)c12 [Compound 31, 4-{8-amino-3-[(6′S,8a′R)-1′,1′-difluoro-3′-oxohexahydrospiro[cyclopropane-1,2′-indolizin]-6′-yl]imidazo[1,5-a]pyrazin-1-yl}-N-[4-(trifluoromethyl)pyridin-2-yl]benzamide]
12 | 2950 | 6.22 | – | CCOc1cc(C(=O)Nc2cc(C(F)(F)F)n(C)n2)ccc1-c1nc([C@@H]2CC[C@@H]3N(C2)C(=O)C2(CC2)C3(F)F)n2ccnc(N)c12 [Compound 32, 4-{8-amino-3-[(6′R,8a′S)-1′,1′-difluoro-3′-oxohexahydrospiro[cyclopropane-1,2′-indolizin]-6′-yl]imidazo[1,5-a]pyrazin-1-yl}-3-ethoxy-N-[1-methyl-5-(trifluoromethyl)-1H-pyrazol-3-yl]benzamide]
13 | 1440 | 9.04 | – | CCOc1cc(C(=O)Nc2cc(C(F)(F)F)n(C)n2)c(F)cc1-c1nc([C@@H]2CC[C@@H]3N(C2)C(=O)C2(CC2)C3(F)F)n2ccnc(N)c12 [Compound 33, 4-{8-amino-3-[(6′R,8a′S)-1′,1′-difluoro-3′-oxohexahydrospiro[cyclopropane-1,2′-indolizin]-6′-yl]imidazo[1,5-a]pyrazin-1-yl}-5-ethoxy-2-fluoro-N-[1-methyl-5-(trifluoromethyl)-1H-pyrazol-3-yl]benzamide]
14 | 1580 | 6.95 | – | CCOc1cc(C(=O)Nc2cc(C(F)(F)F)n(C)n2)c(Cl)cc1-c1nc([C@@H]2CC[C@@H]3N(C2)C(=O)C2(CC2)C3(F)F)n2ccnc(N)c12 [Compound 34, 4-{8-amino-3-[(6′R,8a′S)-1′,1′-difluoro-3′-oxohexahydrospiro[cyclopropane-1,2′-indolizin]-6′-yl]imidazo[1,5-a]pyrazin-1-yl}-2-chloro-5-ethoxy-N-[1-methyl-5-(trifluoromethyl)-1H-pyrazol-3-yl]benzamide]
